Data as given in US8957093B2, “N-biphenylmethylindole modulators of PPARG” (The Scripps Research Institute, priority 2011, dated 2015).
Read-outs that look alike come from different tables or passages of the source.

Experiments:
[1] = target: Gal-4-PPAR (human PPAR LBD fused to GAL4 DNA-binding domain) (Homo sapiens (Human), UniProt P37231); assay: GAL4-PPARG LBD / UAS-luciferase transactivation assay in HEK 293T cells; format: cell-based
[2] = target: GST-PPARG-LBD (Homo sapiens (Human), UniProt P37231); assay: Lanthascreen PPARG competitive binding assay (Invitrogen, TR-FRET); details: NA = not active, inc = incomplete curve, read-out: IC50 (nM) Lantha
How it was run: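 Values are fold change in 520 nm/490 nm FRET ratio relative to a 2% DMSO no-ligand control, excitation 340 nm. Compound dilutions starting at 10 μM competed against 5 nM Fluormone Pan-PPAR Green for GST-PPARG-LBD bound by 5 nM Tb anti-GST antibody. Incubation 2 h in the dark in assay buffer C, triplicate wells.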

[3] = HEK-293T, 18 h; read-out: % transactivation at 10 μM (GAL4)
[4] = Lanthascreen competitive binding
[5] = GAL4 transactivation, HEK 293T cells; NA = not active; read-out: EC50 (nM) GAL4
[6] = HEK-293T, 18 h, read-out: % transactivation at 10 μM (GAL4)
[7] = GAL4 transactivation; read-out: EC50 (nM) GAL4
[8] = Lanthascreen PPARG competitive binding

Sequence of GST-PPARG-LBD (P37231 238-503): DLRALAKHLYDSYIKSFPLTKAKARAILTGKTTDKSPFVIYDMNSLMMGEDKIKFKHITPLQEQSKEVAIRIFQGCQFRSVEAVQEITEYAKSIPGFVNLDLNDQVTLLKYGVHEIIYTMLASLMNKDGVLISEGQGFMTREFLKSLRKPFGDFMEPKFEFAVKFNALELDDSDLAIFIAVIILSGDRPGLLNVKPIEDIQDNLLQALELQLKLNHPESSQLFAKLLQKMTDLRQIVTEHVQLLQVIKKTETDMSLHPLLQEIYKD
Sequence of Gal-4-PPAR (human PPAR LBD fused to GAL4 DNA-binding domain) (P37231 238-503): as above

IC50 [2, 4] [nM] | EC50 [1, 5] [nM] | activation at 10 µM [1, 6] [%] | Structure (SMILES) | EC50 [1] [nM] | activation at 10 µM [1, 3] [%] | EC50 [1, 7] [nM] | IC50 [2, 8] [nM]
9 | 354 | – | Cc1c(C)n(Cc2ccc(-c3ccccc3C(=O)O)cc2)c2ccc(C(=O)N[C@@H](C)c3cccc(F)c3F)cc12 [Example 229, (S)-4′-((5-((1-(2,3-difluorophenyl)ethyl)carbamoyl)-2,3-dimethyl-1H-indol-1-yl)methyl)-[1,1′-biphenyl]-2-carboxylic acid] | – | 30 | – | –
8 | 259 | 40 | Cc1c(C)n(Cc2ccc(-c3ccccc3C(=O)O)cc2)c2ccc(C(=O)N[C@@H](C)c3cccc(F)c3)cc12 [Example 158, (S)-4′-((5-((1-(3-fluorophenyl)ethyl)carbamoyl)-2,3-dimethyl-1H-indol-1-yl)methyl)-[1,1′-biphenyl]-2-carboxylic acid] | – | – | – | –
2 | 131 | 10 | Cc1c(C)n(Cc2ccc(-c3ccccc3C(=O)O)cc2)c2ccc(C(=O)N[C@H](C)c3cccc(C(F)(F)F)c3Cl)cc12 [Example 231, (R)-4′-((5-((1-(2-chloro-3-(trifluoromethyl)phenyl)ethyl)carbamoyl)-2,3-dimethyl-1H-indol-1-yl)methyl)-[1,1′-biphenyl]-2-carboxylic acid] | – | – | – | –
28 | 4160 | – | Cc1c(C)n(Cc2ccc(-c3ccccc3C(=O)O)cc2)c2ccc(C(=O)N[C@@H](C)c3ccc(OC(F)(F)F)cc3)cc12 [Example 153, (S)-4′-((2,3-dimethyl-5-((1-(4-(trifluoromethoxy)phenyl)ethyl)carbamoyl)-1H-indol-1-yl)methyl)-[1,1′-biphenyl]-2-carboxylic acid] | – | 25 | – | –
4 | 27 | – | CC[C@@H](NC(=O)c1ccc2c(ccn2Cc2ccccc2-c2cccc(C(=O)O)c2)c1)c1ccccc1 [Example 192, (R)-2′-((5-((1-phenylpropyl)carbamoyl)-1H-indol-1-yl)methyl)-[1,1′-biphenyl]-3-carboxylic acid] | – | 40 | – | –
2 | 13 | – | Cc1c(C)n(Cc2ccc(-c3ccccc3C(=O)O)cc2)c2ccc(C(=O)N[C@@H](C)c3ccccn3)cc12 [Example 144, (S)-4′-((2,3-dimethyl-5-((1-(pyridin-2-yl)ethyl)carbamoyl)-1H-indol-1-yl)methyl)-[1,1′-biphenyl]-2-carboxylic acid] | – | 25 | – | –
4 | 161 | – | Cc1c(C)n(Cc2ccc(-c3ccccc3C(=O)O)cc2)c2ccc(C(=O)N[C@H](C)c3cc(C(F)(F)F)ccc3C(F)(F)F)cc12 [Example 173, (R)-4′-((5-((1-(2,5-bis(trifluoromethyl)phenyl)ethyl)carbamoyl)-2,3-dimethyl-1H-indol-1-yl)methyl)-[1,1′-biphenyl]-2-carboxylic acid] | – | 1 | – | –
11 | 172 | – | Cc1cc(Cl)ccc1[C@H](C)NC(=O)c1ccc2c(c1)c(C)c(C)n2Cc1ccc(-c2ccccc2C(=O)O)cc1 [Example 226, (S)-4′-((5-((1-(4-chloro-2-methylphenyl)ethyl)carbamoyl)-2,3-dimethyl-1H-indol-1-yl)methyl)-[1,1′-biphenyl]-2-carboxylic acid] | – | 20 | – | –
– | – | – | Cc1c(C)n(Cc2ccc(-c3ccccc3C(=O)O)cc2)c2ccc(C(=O)N[C@@H](C)c3c(F)cccc3C(F)(F)F)cc12 [Example 300, (S)-4′-((5-((1-(2-Fluoro-6-(trifluoromethyl)phenyl)ethyl)carbamoyl)-2,3-dimethyl-1H-indol-1-yl)methyl)-[1,1′-biphenyl]-2-carboxylic acid] | – | 15 | 167 | 9
2 | 55 | – | COc1cccc([C@@H](C)NC(=O)c2ccc3c(c2)c(C)c(C)n3Cc2ccc(-c3ccccc3C(=O)O)cc2)c1 [Example 161, (R)-4′-((5-((1-(3-methoxyphenyl)ethyl)carbamoyl)-2,3-dimethyl-1H-indol-1-yl)methyl)-[1,1′-biphenyl]-2-carboxylic acid] | – | 30 | – | –
< 1 | 152 | 30 | Cc1c(C)n(Cc2ccc(-c3ccccc3C(=O)O)cc2)c2ccc(C(=O)N[C@@H](C)c3ccccc3Cl)cc12 [Example 159, (S)-4′-((5-((1-(2-chlorophenyl)ethyl)carbamoyl)-2,3-dimethyl-1H-indol-1-yl)methyl)-[1,1′-biphenyl]-2-carboxylic acid] | – | – | – | –
20 | 193 | – | Cc1c(C)n(Cc2ccc(-c3ccccc3C(=O)O)cc2)c2ccc(C(=O)N[C@@H](C)[C@H]3CCCN3C(=O)OCc3ccccc3)cc12 [Example 238, 4′-((5-(((S)-1-((R)-1-((benzyloxy)carbonyl)pyrrolidin-2-yl)ethyl)carbamoyl)-2,3-dimethyl-1H-indol-1-yl)methyl)-[1,1′-biphenyl]-2-carboxylic acid] | – | 55 | – | –
– | – | – | Cc1c(C)n(Cc2ccc(-c3ccccc3C(=O)O)cc2)c2ccc(C(=O)NC(C)c3cncc(Br)c3)cc12 (stereo not drawn) [Example 275, 4′-((5-(1-(5-bromopyridin-3-yl)ethylcarbamoyl)-2,3-dimethyl-1H-indol-1-yl)methyl)biphenyl-2-carboxylic acid] | – | 35 | 572 | 8
256 | 766 | – | Cc1c(C)n(Cc2ccc(-c3ccccc3C(=O)O)cc2)c2ccc(C(=O)N[C@@H](C)c3cccc4ccccc34)cc12 [Example 152, (S)-4′-((2,3-dimethyl-5-((1-(naphthalen-1-yl)ethyl)carbamoyl)-1H-indol-1-yl)methyl)-[1,1′-biphenyl]-2-carboxylic acid] | – | 17 | – | –

Structure (SMILES) | IC50 [2, 4] [nM] | EC50 [1, 5] [nM] | activation at 10 µM [1, 6] [%] | EC50 [1] [nM] | activation at 10 µM [1, 3] [%] | EC50 [1, 7] [nM] | IC50 [2, 8] [nM]
Cc1c(C)n(Cc2ccc(-c3ccccc3-c3noc(=O)[nH]3)cc2)c2ccc(C(=O)N[C@@H](C)c3cccc(C(C)C)c3)cc12 [Example 244, (S)—N-(1-(3-isopropylphenyl)ethyl)-2,3-dimethyl-1-((2′-(5-oxo-4,5-dihydro-1,2,4-oxadiazol-3-yl)-[1,1′-biphenyl]-4-yl)methyl)-1H-indole-5-carboxamide] | 40 | – | – | 921 | 8 | – | –
Cc1c(C)n(Cc2ccc(-c3ccccc3C(=O)O)cc2)c2ccc(C(=O)N[C@@H](C)C3CCN(C(=O)OCc4ccccc4)CC3)cc12 [Example 202, (S)-4′-((5-((1-(1-((benzyloxy)carbonyl)piperidin-4-yl)ethyl)carbamoyl)-2,3-dimethyl-1H-indol-1-yl)methyl)-[1,1′-biphenyl]-2-carboxylic acid] | 35 | 1750 | – | – | 40 | – | –
Cc1c(C)n(Cc2ccc(-c3ccccc3-c3n[nH]c(=O)o3)cc2)c2ccc(C(=O)N[C@@H](C)c3cccc(C(C)C)c3)cc12 [Example 245, (S)—N-(1-(3-isopropylphenyl)ethyl)-2,3-dimethyl-1-((2′-(5-oxo-4,5-dihydro-1,3,4-oxadiazol-2-yl)-[1,1′-biphenyl]-4-yl)methyl)-1H-indole-5-carboxamide] | 7 | – | – | 454 | 10 | – | –
Cc1c(C)n(Cc2ccc(-c3ccccc3C(=O)O)cc2)c2ccc(C(=O)N[C@H](C)c3ccnc(C4CC4)c3)cc12 [Example 270, (R)-4′-((5-(1-(2-cyclopropylpyridin-4-yl)ethylcarbamoyl)-2,3-dimethyl-1H-indol-1-yl)methyl)biphenyl-2-carboxylic acid] | 15 | 686 | – | – | 40 | – | –
Cc1c(C)n(Cc2ccc(-c3ccccc3C(=O)O)cc2)c2ccc(C(=O)N[C@@H](C)c3ccc(Br)cn3)cc12 [Example 260, (S)-4′-((5-((1-(5-bromopyridin-2-yl)ethyl)carbamoyl)-2,3-dimethyl-1H-indol-1-yl)methyl)-[1,1′-biphenyl]-2-carboxylic acid] | 2 | 42 | – | – | 25 | – | –
Cc1c(C)n(Cc2ccc(-c3ccccc3C(=O)O)cc2)c2ccc(C(=O)N[C@H](C)c3ccc(C(F)(F)F)cc3C(F)(F)F)cc12 [Example 209, (R)-4′-((5-((1-(2,4-bis(trifluoromethyl)phenyl)ethyl)carbamoyl)-2,3-dimethyl-1H-indol-1-yl)methyl)-[1,1′-biphenyl]-2-carboxylic acid] | 11 | 211 | – | – | 10 | – | –
COc1ccc(F)cc1[C@@H](C)NC(=O)c1ccc2c(c1)c(C)c(C)n2Cc1ccc(-c2ccccc2C(=O)O)cc1 [Example 205, (R)-4′-((5-((1-(5-fluoro-2-methoxyphenyl)ethyl)carbamoyl)-2,3-dimethyl-1H-indol-1-yl)methyl)-[1,1′-biphenyl]-2-carboxylic acid] | 5 | 637 | – | – | 20 | – | –
Cc1c(C)n(Cc2ccc(-c3ccccc3C(=O)O)cc2)c2ccc(C(=O)N[C@@H](C)c3cc(C4CC4)ccn3)cc12 [Example 266, (S)-4′-((5-((1-(4-cyclopropylpyridin-2-yl)ethyl)carbamoyl)-2,3-dimethyl-1H-indol-1-yl)methyl)-[1,1′-biphenyl]-2-carboxylic acid] | 8 | 588 | – | – | 25 | – | –
Cc1c(C)n(Cc2ccc(-c3ccccc3C(=O)O)cc2)c2ccc(C(=O)N[C@@H](C)c3ccc(C4CC4)cn3)cc12 [Example 261, (S)-4′-((5-((1-(5-cyclopropylpyridin-2-yl)ethyl)carbamoyl)-2,3-dimethyl-1H-indol-1-yl)methyl)-[1,1′-biphenyl]-2-carboxylic acid] | 4 | 50 | – | – | 30 | – | –
